Reference: the NIST ThermoML archive (doi:10.1016/j.fluid.2012.12.008)
± gives the expanded uncertainty stated by the source.

Settings: Liquid; for mass density: Vibrating tube method; for thermal conductivity: Hot wire method

SMILES: CCCCCCCC[n+]1ccccc1.F[B-](F)(F)F [1-octylpyridinium tetrafluoroborate]
- mass density (293.15 K, 100 kPa): 1111.2 ± 4.6 kg/m3
- mass density (293.15 K, 5000 kPa): 1113.8 ± 4.6 kg/m3
- mass density (293.15 K, 10000 kPa): 1116.2 ± 4.6 kg/m3
- mass density (293.15 K, 15000 kPa): 1118.6 ± 4.6 kg/m3
- mass density (293.15 K, 20000 kPa): 1120.9 ± 4.6 kg/m3
- thermal conductivity (294.2 K, 100 kPa): 0.16 ± 0.008 W/m/K
- thermal conductivity (294.2 K, 10000 kPa): 0.163 ± 0.009 W/m/K
- thermal conductivity (294.2 K, 20000 kPa): 0.165 ± 0.009 W/m/K
- mass density (303.15 K, 100 kPa): 1104.4 ± 4.5 kg/m3
- mass density (303.15 K, 5000 kPa): 1107.1 ± 4.5 kg/m3
- mass density (303.15 K, 10000 kPa): 1109.6 ± 4.6 kg/m3
- mass density (303.15 K, 15000 kPa): 1112.1 ± 4.6 kg/m3
- mass density (303.15 K, 20000 kPa): 1114.4 ± 4.6 kg/m3
- mass density (313.15 K, 100 kPa): 1097.6 ± 4.5 kg/m3
- mass density (313.15 K, 5000 kPa): 1100.3 ± 4.5 kg/m3
- mass density (313.15 K, 10000 kPa): 1103 ± 4.5 kg/m3
- mass density (313.15 K, 15000 kPa): 1105.4 ± 4.5 kg/m3
- mass density (313.15 K, 20000 kPa): 1107.8 ± 4.6 kg/m3
- thermal conductivity (314.3 K, 100 kPa): 0.16 ± 0.008 W/m/K
- thermal conductivity (314.3 K, 10000 kPa): 0.161 ± 0.008 W/m/K
- thermal conductivity (314.3 K, 20000 kPa): 0.164 ± 0.009 W/m/K
- mass density (323.15 K, 100 kPa): 1091.1 ± 4.5 kg/m3
- mass density (323.15 K, 5000 kPa): 1093.9 ± 4.5 kg/m3
- mass density (323.15 K, 10000 kPa): 1096.6 ± 4.5 kg/m3
- mass density (323.15 K, 15000 kPa): 1099 ± 4.5 kg/m3
- mass density (323.15 K, 20000 kPa): 1101.5 ± 4.5 kg/m3
- mass density (333.15 K, 100 kPa): 1084.4 ± 4.4 kg/m3
- mass density (333.15 K, 5000 kPa): 1087.1 ± 4.5 kg/m3
- mass density (333.15 K, 10000 kPa): 1089.9 ± 4.5 kg/m3
- mass density (333.15 K, 15000 kPa): 1092.6 ± 4.5 kg/m3
- mass density (333.15 K, 20000 kPa): 1095.2 ± 4.5 kg/m3
- thermal conductivity (334.3 K, 100 kPa): 0.158 ± 0.008 W/m/K
- thermal conductivity (334.3 K, 10000 kPa): 0.159 ± 0.008 W/m/K
- thermal conductivity (334.3 K, 20000 kPa): 0.161 ± 0.008 W/m/K
- mass density (343.15 K, 100 kPa): 1077.9 ± 4.4 kg/m3
- mass density (343.15 K, 5000 kPa): 1080.7 ± 4.4 kg/m3
- mass density (343.15 K, 10000 kPa): 1083.6 ± 4.4 kg/m3
- mass density (343.15 K, 15000 kPa): 1086.2 ± 4.5 kg/m3
- mass density (343.15 K, 20000 kPa): 1089 ± 4.5 kg/m3
- mass density (353.15 K, 100 kPa): 1071.6 ± 4.4 kg/m3
- mass density (353.15 K, 5000 kPa): 1074.4 ± 4.4 kg/m3
- mass density (353.15 K, 10000 kPa): 1077.3 ± 4.4 kg/m3
- mass density (353.15 K, 15000 kPa): 1080.1 ± 4.4 kg/m3
- mass density (353.15 K, 20000 kPa): 1083 ± 4.4 kg/m3

SMILES: CCCC[n+]1ccccc1.F[B-](F)(F)F [1-butylpyridinium tetrafluoroborate]
- mass density (293.15 K, 100 kPa): 1216.5 ± 5 kg/m3
- mass density (293.15 K, 5000 kPa): 1219 ± 5 kg/m3
- mass density (293.15 K, 10000 kPa): 1221.1 ± 5.1 kg/m3
- mass density (293.15 K, 15000 kPa): 1223.4 ± 5.1 kg/m3
- mass density (293.15 K, 20000 kPa): 1225.5 ± 5.1 kg/m3
- thermal conductivity (294.2 K, 100 kPa): 0.171 ± 0.009 W/m/K
- thermal conductivity (294.2 K, 10000 kPa): 0.171 ± 0.009 W/m/K
- thermal conductivity (294.2 K, 20000 kPa): 0.173 ± 0.009 W/m/K
- mass density (303.15 K, 100 kPa): 1209.5 ± 5 kg/m3
- mass density (303.15 K, 5000 kPa): 1211.9 ± 5 kg/m3
- mass density (303.15 K, 10000 kPa): 1214.3 ± 5 kg/m3
- mass density (303.15 K, 15000 kPa): 1216.4 ± 5 kg/m3
- mass density (303.15 K, 20000 kPa): 1218.7 ± 5.1 kg/m3
- mass density (313.15 K, 100 kPa): 1202.6 ± 4.9 kg/m3
- mass density (313.15 K, 5000 kPa): 1205.1 ± 5 kg/m3
- mass density (313.15 K, 10000 kPa): 1207.6 ± 5 kg/m3
- mass density (313.15 K, 15000 kPa): 1209.9 ± 5 kg/m3
- mass density (313.15 K, 20000 kPa): 1212 ± 5 kg/m3
- thermal conductivity (314.3 K, 100 kPa): 0.17 ± 0.009 W/m/K
- thermal conductivity (314.3 K, 10000 kPa): 0.171 ± 0.009 W/m/K
- thermal conductivity (314.3 K, 20000 kPa): 0.173 ± 0.009 W/m/K
- mass density (323.15 K, 100 kPa): 1196 ± 4.9 kg/m3
- mass density (323.15 K, 5000 kPa): 1198.5 ± 4.9 kg/m3
- mass density (323.15 K, 10000 kPa): 1200.9 ± 5 kg/m3
- mass density (323.15 K, 15000 kPa): 1203.2 ± 5 kg/m3
- mass density (323.15 K, 20000 kPa): 1205.5 ± 5 kg/m3
- mass density (333.15 K, 100 kPa): 1188.9 ± 4.9 kg/m3
- mass density (333.15 K, 5000 kPa): 1191.4 ± 4.9 kg/m3
- mass density (333.15 K, 10000 kPa): 1193.9 ± 4.9 kg/m3
- mass density (333.15 K, 15000 kPa): 1196.4 ± 4.9 kg/m3
- mass density (333.15 K, 20000 kPa): 1198.8 ± 5 kg/m3
- thermal conductivity (334.3 K, 100 kPa): 0.169 ± 0.009 W/m/K
- thermal conductivity (334.3 K, 10000 kPa): 0.171 ± 0.009 W/m/K
- thermal conductivity (334.3 K, 20000 kPa): 0.172 ± 0.009 W/m/K
- mass density (343.15 K, 100 kPa): 1182 ± 4.9 kg/m3
- mass density (343.15 K, 5000 kPa): 1184.5 ± 4.9 kg/m3
- mass density (343.15 K, 10000 kPa): 1187 ± 4.9 kg/m3
- mass density (343.15 K, 15000 kPa): 1189.5 ± 4.9 kg/m3
- mass density (343.15 K, 20000 kPa): 1191.9 ± 4.9 kg/m3
- mass density (353.15 K, 100 kPa): 1175.4 ± 4.8 kg/m3
- mass density (353.15 K, 5000 kPa): 1177.9 ± 4.8 kg/m3
- mass density (353.15 K, 10000 kPa): 1180.6 ± 4.9 kg/m3
- mass density (353.15 K, 15000 kPa): 1183.3 ± 4.9 kg/m3
- mass density (353.15 K, 20000 kPa): 1185.8 ± 4.9 kg/m3

SMILES: CCCCCC[n+]1ccccc1.F[B-](F)(F)F [1-hexylpyridinium tetrafluoroborate]
- mass density (293.15 K, 100 kPa): 1157 ± 4.8 kg/m3
- mass density (293.15 K, 5000 kPa): 1159.5 ± 4.8 kg/m3
- mass density (293.15 K, 10000 kPa): 1161.8 ± 4.8 kg/m3
- mass density (293.15 K, 15000 kPa): 1164.1 ± 4.8 kg/m3
- mass density (293.15 K, 20000 kPa): 1166.5 ± 4.8 kg/m3
- thermal conductivity (294.2 K, 100 kPa): 0.163 ± 0.009 W/m/K
- thermal conductivity (294.2 K, 10000 kPa): 0.165 ± 0.009 W/m/K
- thermal conductivity (294.2 K, 20000 kPa): 0.166 ± 0.009 W/m/K
- mass density (303.15 K, 100 kPa): 1150.3 ± 4.7 kg/m3
- mass density (303.15 K, 5000 kPa): 1152.9 ± 4.7 kg/m3
- mass density (303.15 K, 10000 kPa): 1155.3 ± 4.8 kg/m3
- mass density (303.15 K, 15000 kPa): 1157.6 ± 4.8 kg/m3
- mass density (303.15 K, 20000 kPa): 1159.9 ± 4.8 kg/m3
- mass density (313.15 K, 100 kPa): 1143.5 ± 4.7 kg/m3
- mass density (313.15 K, 5000 kPa): 1146.1 ± 4.7 kg/m3
- mass density (313.15 K, 10000 kPa): 1148.7 ± 4.7 kg/m3
- mass density (313.15 K, 15000 kPa): 1151.1 ± 4.7 kg/m3
- mass density (313.15 K, 20000 kPa): 1153.4 ± 4.8 kg/m3
- thermal conductivity (314.3 K, 100 kPa): 0.163 ± 0.009 W/m/K
- thermal conductivity (314.3 K, 10000 kPa): 0.163 ± 0.009 W/m/K
- thermal conductivity (314.3 K, 20000 kPa): 0.164 ± 0.009 W/m/K
- mass density (323.15 K, 100 kPa): 1137 ± 4.7 kg/m3
- mass density (323.15 K, 5000 kPa): 1139.7 ± 4.7 kg/m3
- mass density (323.15 K, 10000 kPa): 1142.2 ± 4.7 kg/m3
- mass density (323.15 K, 15000 kPa): 1144.5 ± 4.7 kg/m3
- mass density (323.15 K, 20000 kPa): 1146.9 ± 4.7 kg/m3
- mass density (333.15 K, 100 kPa): 1130 ± 4.6 kg/m3
- mass density (333.15 K, 5000 kPa): 1132.7 ± 4.6 kg/m3
- mass density (333.15 K, 10000 kPa): 1135.2 ± 4.7 kg/m3
- mass density (333.15 K, 15000 kPa): 1137.8 ± 4.7 kg/m3
- mass density (333.15 K, 20000 kPa): 1140.3 ± 4.7 kg/m3
- thermal conductivity (334.3 K, 100 kPa): 0.161 ± 0.008 W/m/K
- thermal conductivity (334.3 K, 10000 kPa): 0.162 ± 0.009 W/m/K
- thermal conductivity (334.3 K, 20000 kPa): 0.163 ± 0.009 W/m/K
- mass density (343.15 K, 100 kPa): 1123.4 ± 4.6 kg/m3
- mass density (343.15 K, 5000 kPa): 1126 ± 4.6 kg/m3
- mass density (343.15 K, 10000 kPa): 1128.7 ± 4.6 kg/m3
- mass density (343.15 K, 15000 kPa): 1131.2 ± 4.7 kg/m3
- mass density (343.15 K, 20000 kPa): 1133.8 ± 4.7 kg/m3
- mass density (353.15 K, 100 kPa): 1116.8 ± 4.6 kg/m3
- mass density (353.15 K, 5000 kPa): 1119.5 ± 4.6 kg/m3
- mass density (353.15 K, 10000 kPa): 1122.3 ± 4.6 kg/m3
- mass density (353.15 K, 15000 kPa): 1125 ± 4.6 kg/m3
- mass density (353.15 K, 20000 kPa): 1127.6 ± 4.6 kg/m3
